Where two headings read alike, the source gives them in different places.
Tested on: test plant species
Test: Post-emergent herbicidal activity test (greenhouse, foliar spray, visual growth reduction)
Type: in vivo
Conditions: post-emergence, 336 h, 140 g ai/ha
Method in brief: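 Visual scoring 14 d after treatment (0 = no injury, 100 = complete control) against nontreated and solvent-blank plants gave percent growth reduction. Foliar application used a track sprayer delivering 187 L/ha to seedlings at first or second true leaf stage, grown at 23–29 °C day, ~15 h photoperiod.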

[1] = ALOMY: blackgrass (Alopecurus myosuroides), 14 days after application, read-out: Visual Growth Reduction (%) 14 Days After Application, ALOMY
[2] = AMARE: redroot pigweed (Amaranthus retroflexus), 14 days after application, read-out: Visual Growth Reduction (%) 14 Days After Application, AMARE
[3] = AVEFA: wild oat (Avena fatua), 14 days after application, read-out: Visual Growth Reduction (%) 14 Days After Application, AVEFA
[4] = CHEAL: lambsquarters (Chenopodium album), 14 days after application, read-out: Visual Growth Reduction (%) 14 Days After Application, CHEAL
[5] = CIRAR: canada thistle (Cirsium arvense), 14 days after application, read-out: Visual Growth Reduction (%) 14 Days After Application, CIRAR
[6] = CYPES: yellow nutsedge (Cyperus esculentus), 14 days after application, read-out: Visual Growth Reduction (%) 14 Days After Application, CYPES
[7] = DIGSA: crabgrass (Digitaria sanguinalis), 14 days after application, read-out: Visual Growth Reduction (%) 14 Days After Application, DIGSA
[8] = ECHCG: barnyardgrass (Echinochloa crus-galli), 14 days after application, read-out: Visual Growth Reduction (%) 14 Days After Application, ECHCG
[9] = IPOHE: ivy-leaf morning glory (Ipomoea hederacea), 14 days after application, read-out: Visual Growth Reduction (%) 14 Days After Application, IPOHE
[10] = ORYSA: rice (Oryza sativa), 14 days after application, read-out: Visual Growth Reduction (%) 14 Days After Application, ORYSA
[11] = SETFA: giant foxtail (Setaria faberi), 14 days after application, read-out: Visual Growth Reduction (%) 14 Days After Application, SETFA
[12] = SORVU: grain sorghum (Sorghum vulgare), 14 days after application, read-out: Visual Growth Reduction (%) 14 Days After Application, SORVU
[13] = STEME: common chickweed (Stellaria media), 14 days after application, read-out: Visual Growth Reduction (%) 14 Days After Application, STEME
[14] = TRZAS: wheat, spring (Triticum aestivum), 14 days after application, read-out: Visual Growth Reduction (%) 14 Days After Application, TRZAS
[15] = KCHSC: kochia (Bassia scoparia), 14 days after application, read-out: Visual Growth Reduction (%) 14 Days After Application, KCHSC
[16] = blackgrass (Alopecurus myosuroides), 14 Days After Application, read-out: Visual Growth Reduction (%) ALOMY
[17] = canada thistle (Cirsium arvense), 14 Days After Application, read-out: Visual Growth Reduction (%) CIRAR
[18] = crabgrass (Digitaria sanguinalis), 14 Days After Application, read-out: Visual Growth Reduction (%) DIGSA
[19] = lambsquarters (Chenopodium album), 14 Days After Application, read-out: Visual Growth Reduction (%) CHEAL
[20] = redroot pigweed (Amaranthus retroflexus), 14 Days After Application, read-out: Visual Growth Reduction (%) AMARE
[21] = wild oat (Avena fatua), 14 Days After Application, read-out: Visual Growth Reduction (%) AVEFA
[22] = yellow nutsedge (Cyperus esculentus), 14 Days After Application, read-out: Visual Growth Reduction (%) CYPES

Row | SMILES | pest or weed control at 140 g/ha [1] [%] | pest or weed control at 140 g/ha [2] [%] | pest or weed control at 140 g/ha [3] [%] | pest or weed control at 140 g/ha [4] [%] | pest or weed control at 140 g/ha [5] [%] | pest or weed control at 140 g/ha [6] [%] | pest or weed control at 140 g/ha [7] [%] | pest or weed control at 140 g/ha [8] [%] | pest or weed control at 140 g/ha [9] [%] | pest or weed control at 140 g/ha [10] [%] | pest or weed control at 140 g/ha [11] [%] | pest or weed control at 140 g/ha [12] [%] | pest or weed control at 140 g/ha [13] [%] | pest or weed control at 140 g/ha [14] [%] | pest or weed control at 140 g/ha [15] [%] | pest or weed control at 140 g/ha [16] [%] | pest or weed control at 140 g/ha [17] [%] | pest or weed control at 140 g/ha [18] [%] | pest or weed control at 140 g/ha [19] [%] | pest or weed control at 140 g/ha [20] [%] | further results
1 | COC(=O)c1nc(-c2ccc(Cl)c(OC)c2F)ncc1Cl [F115, methyl 5-chloro-2-(4-chloro-2-fluoro-3-methoxyphenyl)pyrimidine-4-carboxylate] | 0 to 29 | 0 to 29 | 0 to 29 | 0 to 29 | 60 to 74 | 0 to 29 | 0 to 29 | 0 to 29 | 30 to 44 | 0 to 29 | 0 to 29 | 0 to 29 | 0 to 29 | 0 to 29 |  |  |  |  |  |  | 
2 | COC(=O)c1nc(-c2cc(Cl)c(C(F)(F)F)cc2C)c(F)cc1Cl [F370, Methyl 3-chloro-6-(5-chloro-2-methyl-4-(trifluoromethyl)phenyl)-5-fluoropicolinate] |  |  |  |  |  |  |  | 0 to 29 | 95 to 100 | 0 to 29 | 60 to 74 | 85 to 94 | 0 to 29 | 0 to 29 | 0 to 29 | 0 to 29 | 75 to 84 | 45 to 59 | 45 to 59 | 85 to 94 | pest or weed control at 140 g/ha [21]: 0 to 29%; pest or weed control at 140 g/ha [22]: 0 to 29%
3 | COC(=O)c1nc(-c2cc3nonc3cc2F)c(F)cc1Cl [F318, Methyl 3-chloro-5-fluoro-6-(6-fluorobenzo[c][1,2,5]oxadiazol-5-yl)picolinate] |  |  |  |  |  |  |  | 85 to 94 | 95 to 100 | 0 to 29 | 75 to 84 | 85 to 94 | 0 to 29 | 0 to 29 | 0 to 29 | 0 to 29 | 0 to 29 | 85 to 94 | 60 to 74 | 60 to 74 | pest or weed control at 140 g/ha [21]: 0 to 29%; pest or weed control at 140 g/ha [22]: 0 to 29%
4 | COC(=O)c1nc(-c2ccc(Cl)c(OC)c2F)cc(Cl)c1Cl [F76, methyl 3,4-dichloro-6-(4-chloro-2-fluoro-3-methoxyphenyl)picolinate] | 0 to 29 | 30 to 44 | 0 to 29 | 45 to 59 | 0 to 29 | 30 to 44 | 0 to 29 | 0 to 29 | 30 to 44 | 0 to 29 | 0 to 29 | 0 to 29 | 0 to 29 | 0 to 29 |  |  |  |  |  |  | 
5 | COC(=O)c1nc(-c2ccc(Cl)c(C(C)F)c2Cl)ccc1Cl (centres unmarked) [F282, Methyl 3-chloro-6-(2,4-dichloro-3-(1-fluoroethyl)phenyl) picolinate] |  |  |  |  |  |  |  | 0 to 29 | 45 to 59 | 0 to 29 | 0 to 29 | 0 to 29 | 0 to 29 | 0 to 29 | 0 to 29 | 0 to 29 | 60 to 74 | 0 to 29 | 85 to 94 | 45 to 59 | pest or weed control at 140 g/ha [21]: 0 to 29%; pest or weed control at 140 g/ha [22]: 0 to 29%
6 | COC(=O)c1nc(-c2ccc(C(F)(F)F)cc2Cl)ccc1C [F53, Methyl 6-(2-chloro-4-(trifluoromethyl)phenyl)-3-methylpicolinate] | 60 to 74 | 95 to 100 | 75 to 84 | 95 to 100 | 95 to 100 | 0 to 29 | 95 to 100 | 0 to 29 |  | 0 to 29 | 0 to 29 | 0 to 29 | 0 to 29 | 0 to 29 | 0 to 29 |  |  |  |  |  | 
7 | COC(=O)c1nc(-c2ccc(C(F)(F)F)cc2Cl)ccc1Br [F32, Methyl 3-bromo-6-(2-chloro-4-(trifluoromethyl)yl)picolinate] | 0 to 29 | 60 to 74 | 0 to 29 | 60 to 74 | 75 to 84 | 0 to 29 | 60 to 74 | 0 to 29 | 95 to 100 | 0 to 29 | 30 to 44 | 85 to 94 | 0 to 29 | 0 to 29 | 45 to 59 |  |  |  |  |  | 
8 | CCC(F)c1c(Cl)ccc(-c2ccc(Cl)c(C(=O)OC)n2)c1F (centres unmarked) [F285, Methyl 3-chloro-6-(4-chloro-2-fluoro-3-(1-fluoropropyl)phenyl) picolinate] |  |  |  |  |  |  |  | 0 to 29 | 0 to 29 | 0 to 29 | 0 to 29 | 0 to 29 | 0 to 29 | 0 to 29 | 0 to 29 | 0 to 29 | 30 to 44 | 0 to 29 | 0 to 29 | 0 to 29 | pest or weed control at 140 g/ha [21]: 0 to 29%; pest or weed control at 140 g/ha [22]: 0 to 29%
9 | COc1c(Cl)ccc(-c2cc(Cl)c(Cl)c(C(=O)O)n2)c1F [F75, 3,4-Dichloro-6-(4-chloro-2-fluoro-3-methoxyphenyl) picolinic acid] | 0 to 29 | 85 to 94 | 0 to 29 | 95 to 100 | 30 to 44 | 0 to 29 | 0 to 29 | 95 to 100 | 30 to 44 | 0 to 29 | 45 to 59 | 0 to 29 | 30 to 44 | 0 to 29 |  |  |  |  |  |  | 
10 | O=C(OCc1ccccc1C(F)(F)F)c1nc(-c2ccc(C(F)(F)F)cc2Cl)ccc1Cl [F380, 2-(Trifluoromethyl) benzyl 3-chloro-6-(2-chloro-4-(trifluoromethyl)phenyl)picolinate] |  |  |  |  |  |  |  | 75 to 84 | 95 to 100 | 0 to 29 | 95 to 100 | 95 to 100 | 0 to 29 | 60 to 74 | 75 to 84 | 45 to 59 | 85 to 94 | 95 to 100 | 95 to 100 | 95 to 100 | pest or weed control at 140 g/ha [21]: 60 to 74%; pest or weed control at 140 g/ha [22]: 0 to 29%

Reference: patent US20230017045A1, “PYRIDINE AND PYRIMIDINE CARBOXYLATE HERBICIDES AND METHODS OF USE THEREOF” (Dow AgroSciences LLC, priority 2017, published 2023)
